Results reported in patent US20140080758A1, “TREATMENT OF KIDNEY DISORDERS WITH VIP FRAGMENTS” (Vectus […] Limited, priority 2008, published 2014).

System: spontaneously hypertensive rats (SHR) on 2.2% salt diet
Assay: Renal interstitial fibrosis after 4-week peptide infusion in SHR on 2.2% salt diet
Assay type: in vivo, rat
Details: infusion 5 pmol/kg/min intravenously by osmotic minipump for 4 weeks, versus vehicle control, fibrosis as percent surface area
Description: For kidney fibrosis experiments, two types of rats were used, spontaneously hypertensive rats (SHR) and normotensive control Wistar-Kyoto rats (WKY) (animals were obtained from Australian Animal Resources, Perth, Western Australia, Australia)
i) Male spontaneously hypertensive (SHR) rats on 2.2% salt diet ii) Male Wistar Kyoto (WKY) rats on 4.4% salt diets
Commencing at 12 weeks of age, the rats were acclimatized to tail cuff blood pressure measurements and handling for 2 weeks. They then underwent operative insertion of an osmotic minipump (Alzet—Manufacturer: Durect Corporation, Cupertino, Calif., USA; Supplier: Bioscientific Gymea, NSW, Australia) which was designed to deliver vehicle alone (Hartman's solution, Baxter Health Care Corporation, USA)—(Controls) or VIP, VIP fragment or analogue at a dose of 4 pmol/kg/min or 5 pmol/kg/min intravenously.
The infusion was continued for 4 weeks, during which the rats were weighed and their blood pressures measured twice weekly. At the end of the 4 week infusion period, the rats were anaesthetized and their kidneys harvested. […]
For quantitation of interstitial fibrosis, twenty microscopic fields from each kidney were digitized and the amount of fibrosis in each determined as percent surface area using Image-Pro Plus V5.0 software (Cybernetics). The mean value for each rat and subsequently for each infusion group was then determined.

Substance: His-Ser-Asp-Ala-Val-Phe-Thr-Asp-Asn-Tyr-Thr-Arg-Leu-Arg-Lys-Gln-Met-Ala-Val-Lys-Lys-Tyr-Leu-Asn-Ser-Ile-Leu-Asn (HSDAVFTDNYTRLRKQMAVKKYLNSILN; listed as Homo sapiens) [VIP]
- renal interstitial fibrosis: reductions in renal interstitial fibrosis
